Data reported in US11485713B2, “Androgen receptor modulators and methods for their use” (ESSA Pharma, Inc., priority 2018, dated 2022).
Structures can show the parent of a compound that is named as a salt.

Key:
[1] = Microsomal stability assay, MLM; format: in vitro ADME; conditions: mouse, pH 7.4, 1 μM test compound, 0.5 mg/mL liver microsomes protein, 37° C., 0-60 min, read-out: MLM +/− NADPH: Clint (μL/min/mg protein)
Description: (§1) Microsomal Stability Assay: Microsomal stability assay is a widely used in vitro model to characterize the metabolic conversion by phase I enzymes, such as cytochrome P450 (CYP) enzymes. Since metabolism is known to be highly variable in different species, microsomal stability assay is commonly run in multiple species. Metabolic stability of testing compound can be evaluated using human, rat, mouse, or other animal liver or intestine microsomes to predict intrinsic clearance.
(§2) The assay was carried out in 96-well microtiter plates at 37° C. Reaction mixtures (25 μL) contained a final concentration of 1 μM test compound, 0.5 mg/mL liver microsomes protein, and 1 mM NADPH and/or 1 mM UDPGA (with alamethicin) in 100 mM potassium phosphate, pH 7.4 buffer with 3 mM MgCl2. The incubation was done with N=1, but duplicate incubation at each time point can be prepared if necessary. At each of the time points (for example, 0, 15, 30, and 60 minutes), 150 μL of quench solution (100% acetonitrile with 0.1% formic acid) with internal standard was transferred to each well. Besides the zero minute controls, mixtures containing the same components except the NADPH can also be prepared as the negative control. Verapamil was included as a positive control to verify assay performance. Plates were sealed, vortexed, and centrifuged at 4° C. for 15 minutes at 4000 rpm. The supernatant is transferred to fresh plates for LC/MS/MS analysis.
(§3) Summarized conditions: [Compound]=1 μM, [LM]=0.5 mg/mL, [NADPH]=1 mM and/or [UDPGA]=1 mM, Buffer=100 mM Potassium Phosphate, pH 7.4 with 3 mM MgCl2, Time=0, 15, 30, and 60 min, and Temperature=37° C.
(§4) All samples were analyzed on LC/MS/MS using an AB Sciex API 4000 instrument, coupled to a Shimadzu LC-20AD LC Pump system. Analytical samples were separated using a Waters Atlantis T3 dC18 reverse phase HPLC column (20 mm×2.1 mm) at a flow rate of 0.5 mL/min. The mobile phase consisted of 0.1% formic acid in water (solvent A) and 0.1% formic acid in 100% acetonitrile (solvent B).
(§5) The extent of metabolism is calculated as the disappearance of the test compound, compared to the 0-min time incubation. Initial rates are calculated for the compound concentration and used to determine half-life (t½) values and subsequently, the intrinsic clearance (Clint). Clint=(0.693)(1/t½ (min))(g of liver/kg of body weight)(mL incubation/mg of microsomal protein)(45 mg of microsomal protein/g of liver weight)

[2] = Microsomal stability assay, HLM; format: in vitro ADME; conditions: human, pH 7.4, 1 μM test compound, 0.5 mg/mL liver microsomes protein, 37° C., 0-60 min, read-out: HLM +/− NADPH: Clint (μL/min/mg protein)
Description: as §1, §2, §3, §4, §5

LNCaP ARE-Luc = assay: Luciferase assay in LNCaP cell lysates (LNCaP ARE-Luc); format: cell-based; conditions: Homo sapiens, Firefly Luciferase Assay System, read-out: LNCaP ARE-Luc % inhibition IC50 Ranges
Protocol: Lysates were thawed on ice then collected into V-bottom 96-well tissue culture plates. Lysates were centrifuged at 4° C. for 5 minutes at 4000 rpm. To measure luminescence of LNCaP cell lysates the Firefly Luciferase Assay System (Promega) was employed, according to manufacturer's protocol. Relative luminescence units (RLU) in cell lysates were detected for 10 seconds using Promega GoMax-Multi Detection Luminometer (Promega).
Statistical analyses were performed using GraphPad Prism (Version 6.01 for Windows; La Jolla, Calif., USA). Comparisons between treatment and control groups were compared using Two-Way ANOVA with post-hoc Dunnett's and Tukey's tests. Differences were considered statistically significant at P values less than 0.05. Densitometric quantification of relative AR levels was determined by Image.

microsomal CLint at 1 μM [1]	microsomal CLint at 1 μM [2]	IC50 (LNCaP ARE-Luc)	Compound
≥ 48 µL/min/mg	≥ 48 µL/min/mg	≥ 0.25 µM	CC(C)(c1ccc(OCCCCl)cc1)c1ccc(OCC(=O)CNS(C)(=O)=O)c(Cl)c1 [Compound A13]
≥ 48 µL/min/mg	≥ 48 µL/min/mg	≥ 0.25 µM	CS(=O)(=O)NCC(=O)COc1ccc(Cc2cc(Cl)c(OCCCCl)c(Cl)c2)cc1 [Compound A21]
≥ 48 µL/min/mg	≥ 48 µL/min/mg	< 0.1 µM	CC(C)(c1ccc(OCC(=O)CNS(C)(=O)=O)cc1)c1ccc(OCCCCl)c(Cl)c1 [Compound A5]
≥ 48 µL/min/mg	≥ 48 µL/min/mg	≥ 0.25 µM	CS(=O)(=O)NCC(=O)COc1ccccc1Cc1cc(Cl)c(OCCCCl)c(Cl)c1 [Compound A49]
12 to 48 µL/min/mg	12 to 48 µL/min/mg	≥ 0.25 µM	CN(CC(=O)CNS(C)(=O)=O)c1ccc(C(C)(C)c2cc(Cl)c(OCCCCl)c(Cl)c2)cc1 [Compound A28]
≥ 48 µL/min/mg	≥ 48 µL/min/mg	≥ 0.25 µM	CN(c1ccc(OCC(=O)CNS(C)(=O)=O)cc1)c1cc(Cl)c(OCCCCl)c(Cl)c1 [Compound A23]
12 to 48 µL/min/mg	12 to 48 µL/min/mg	≥ 0.25 µM	CN(CC(=O)CNS(C)(=O)=O)c1ccc(C(C)(C)c2cc(Cl)c(OCCCl)c(Cl)c2)cc1 [Compound A81, N-(3-((4-(2-(3,5-dichloro-4-(2-chloroethoxy)phenyl)propan-2-yl)phenyl) (methyl)amino)-2-oxopropyl)methanesulfonamide hydrochloride]
–	12 to 48 µL/min/mg	≥ 0.25 µM	CS(=O)(=O)NCC(=O)COc1ccc(-c2cc(Cl)c(OCCCCl)c(Cl)c2)cc1 [Compound A73, N-(3-((3′,5′-dichloro-4′-(3-chloropropoxy)-[1,1′-biphenyl]-4-yl)oxy)-2-oxopropyl)methanesulfonamide]
≥ 48 µL/min/mg	≥ 48 µL/min/mg	< 0.1 µM	Cc1cc(C(C)(C)c2ccc(OCC(=O)CNS(C)(=O)=O)cc2)ccc1OCCCCl [Compound A1]
–	≥ 48 µL/min/mg	< 0.1 µM	CC(CCl)COc1c(Cl)cc(C(C)(C)c2ccc(OCC(=O)CNS(C)(=O)=O)cc2)cc1Cl (stereo not shown) [Compound A32]
–	12 to 48 µL/min/mg	≥ 0.25 µM	CC(C)(c1ccc(OCC(=O)N2CCN(S(C)(=O)=O)CC2)cc1)c1cc(Cl)c(OCCCCl)c(Cl)c1 [Compound A44]
≥ 48 µL/min/mg	≥ 48 µL/min/mg	≥ 0.25 µM	CC(C)(c1ccc(OCC(=O)CNS(C)(=O)=O)cc1)c1cc(Cl)c(CCCCCl)c(Cl)c1 [Compound A34]
–	≥ 48 µL/min/mg	0.1 to 0.25 µM	CC(C)(c1ccc(OCC(=O)CNS(C)(=O)=O)cc1)c1cc(Cl)c(NCCCCl)c(Cl)c1 [Compound A35]
≥ 48 µL/min/mg	≥ 48 µL/min/mg	≥ 0.25 µM	Cc1cc(C(C)(C)c2ccc(OCCCCl)cc2)ccc1OCC(=O)CNS(C)(=O)=O [Compound A9]
–	≥ 48 µL/min/mg	≥ 0.25 µM	CC(C)(c1ccc(OC(F)(F)C(=O)CCNS(C)(=O)=O)cc1)c1cc(Cl)c(OCCCCl)c(Cl)c1 [Compound A94, N-(4-(4-(2-(3,5-dichloro-4-(3-chloropropoxy)phenyl)propan-2-yl)phenoxy)-4,4-difluoro-3-oxobutyl)methanesulfonamide]
–	< 12 µL/min/mg	≥ 0.25 µM	CC(C)(c1ccc(NC(=O)CCNS(C)(=O)=O)cc1)c1cc(Cl)c(OCCCCl)c(Cl)c1 [Compound A45]
≥ 48 µL/min/mg	≥ 48 µL/min/mg	≥ 0.25 µM	CS(=O)(=O)NCC(=O)COc1ccc(-c2cc(Cl)c(OCC(O)CCl)c(Cl)c2)cc1 (stereo not shown) [Compound A25]
≥ 48 µL/min/mg	≥ 48 µL/min/mg	≥ 0.25 µM	CC(C)(c1ccc(OCC(=O)CNS(C)(=O)=O)cc1)c1cc(Cl)c(OCc2cccc(Cl)c2)c(Cl)c1 [Compound A37]
12 to 48 µL/min/mg	< 12 µL/min/mg	< 0.1 µM	CC(C)(c1cccc(OCC(=O)CNS(C)(=O)=O)c1)c1ccc(Cl)c(OCCCCl)c1Cl [Compound A77]
–	≥ 48 µL/min/mg	≥ 0.25 µM	CC(C)(c1ccc(OCCCCl)cc1)c1ccc(OCC(=O)CNS(C)(=O)=O)c(C#N)c1 [Compound A15]
–	≥ 48 µL/min/mg	≥ 0.25 µM	CC(C)N(c1ccc(OCC(=O)CNS(C)(=O)=O)cc1)c1cc(Cl)c(OCCCCl)c(Cl)c1 [Compound A70]
< 12 µL/min/mg	12 to 48 µL/min/mg	≥ 0.25 µM	CC(C)(c1ccc(OCC(N)=O)cc1)c1cc(Cl)c(OCCCCl)c(Cl)c1 [Compound A42]
< 12 µL/min/mg	12 to 48 µL/min/mg	≥ 0.25 µM	CC(C)NC(=O)COc1ccc(C(C)(C)c2cc(Cl)c(OCCCCl)c(Cl)c2)cc1 [Compound A30]
12 to 48 µL/min/mg	≥ 48 µL/min/mg	≥ 0.25 µM	CC(C)(c1ccc(NCC(=O)CNS(C)(=O)=O)cc1)c1cc(Cl)c(OCCCCl)c(Cl)c1 [Compound A27]
–	≥ 48 µL/min/mg	≥ 0.25 µM	CC(C)(c1ccc(OCC(=O)CNS(C)(=O)=O)cc1)c1cc(Cl)c(OCc2ccccc2Cl)c(Cl)c1 [Compound A79]
–	≥ 48 µL/min/mg	< 0.1 µM	CC(C)(c1ccc(OCC(=O)CNS(C)(=O)=O)cc1)c1cc(Cl)c(OCCCl)c(Cl)c1 [Compound A33, N-(3-(4-(2-(3,5-dichloro-4-(2-chloroethoxy)phenyl)propan-2-yl)phenoxy)-2-oxopropyl)methanesulfonamide]
–	< 12 µL/min/mg	≥ 0.25 µM	CC(C)(c1ccc(OCC(=O)C(F)(F)F)cc1)c1cc(Cl)c(OCCCCl)c(Cl)c1 [Compound A91, 3-(4-(2-(3,5-dichloro-4-(3-chloropropoxy)phenyl)propan-2-yl)phenoxy)-1,1,1-trifluoropropan-2-one]
≥ 48 µL/min/mg	≥ 48 µL/min/mg	0.1 to 0.25 µM	Cc1cc(OCCCCl)ccc1C(C)(C)c1ccc(OCC(=O)CNS(C)(=O)=O)cc1 [Compound A2]
